System: HMG Co A reductase
Assay: Reduction of HMG Co A reductase activity in liver microsomes of rats treated with 20,25-diazacholesterol and test compound
Format: in vivo, rat
Settings: male CD rats, test compound given last 3 days with 20,25-diazacholesterol, [14C]-mevalonic acid formation vs control
Description: Male rats of the CD strain from Charles River weighing 180-250 g., initially being kept on a regular laboratory diet, are used. The rats are maintained in reverse light-cycle room for 3-6 days. 20,25-Diazacholesterol is administered for a total of 6 days at a dose of 5 mg/kg/day (IG). The last 3 days the test compound is administered along with the 20,25-diazacholesterol. Both compounds are given 2 hours prior to the test on last day. The rats are anesthetized with ether, sacrificed, and the livers removed. Liver microsomes are collected by differential centrifugation after homogenation. Liver microsomes are used as the source of the HMG Co A reductase. Details of the assay are reported in L. W. White and H. Rudney, Biochemistry 9, 2713 (1970); Brown et al., J. Biol. Chem. 248, 4731 (1973); and C. A. Edwards, Biochem. Biophys. Acts 409, 39 (1975). The percent change in formation of [^ 14 C]-mevalonic acid from [^14 C]-HMG Co A is used as a measure of enzyme activity for treated groups versus control groups of rats. If the treated groups have less activity, and the decrease is statistically significant at P≤0.05, the compound is rated active.

C[C@@H]([C@H]1CC[C@H]2[C@@H]3CC=C4C[C@@H](O)CC[C@]4(C)[C@H]3CC[C@]12C)[C@@H](O)CCC1CC1 [24-cyclopropylchol-5-ene-3β,22S-diol]
inhibition of HMG Co A reductase activity (0.5 mg/kg (IG)): 32% | inhibition of HMG Co A reductase activity (5 mg/kg (IG)): 79%
